Results: ChEMBL document CHEMBL1201862, “PubChem BioAssay data set” (2004)
Calls of active or inactive are those of the source.

How the values were obtained:
Beta-galactosidase = Beta-galactosidase (Escherichia coli, UniProt Q8VNN2); experiment: Dose response counterscreen for EBI2 assay utilizing the enzyme, b-galactosidase.; format: functional
Fatty acid synthase [1] = target: T1, Fatty acid synthase (Homo sapiens, UniProt P49327); experiment: FAS thioesterase domain inhibitors, dose response, biochemical, kinetic fluorescence intensity (AID 624326); format: functional;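 also: rate of fluorescence rise from hydrolysis of a fluorogenic O-methyl fluorescein ester substrate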
T1 sequence (P49327 whole entry, the tested form may be a part): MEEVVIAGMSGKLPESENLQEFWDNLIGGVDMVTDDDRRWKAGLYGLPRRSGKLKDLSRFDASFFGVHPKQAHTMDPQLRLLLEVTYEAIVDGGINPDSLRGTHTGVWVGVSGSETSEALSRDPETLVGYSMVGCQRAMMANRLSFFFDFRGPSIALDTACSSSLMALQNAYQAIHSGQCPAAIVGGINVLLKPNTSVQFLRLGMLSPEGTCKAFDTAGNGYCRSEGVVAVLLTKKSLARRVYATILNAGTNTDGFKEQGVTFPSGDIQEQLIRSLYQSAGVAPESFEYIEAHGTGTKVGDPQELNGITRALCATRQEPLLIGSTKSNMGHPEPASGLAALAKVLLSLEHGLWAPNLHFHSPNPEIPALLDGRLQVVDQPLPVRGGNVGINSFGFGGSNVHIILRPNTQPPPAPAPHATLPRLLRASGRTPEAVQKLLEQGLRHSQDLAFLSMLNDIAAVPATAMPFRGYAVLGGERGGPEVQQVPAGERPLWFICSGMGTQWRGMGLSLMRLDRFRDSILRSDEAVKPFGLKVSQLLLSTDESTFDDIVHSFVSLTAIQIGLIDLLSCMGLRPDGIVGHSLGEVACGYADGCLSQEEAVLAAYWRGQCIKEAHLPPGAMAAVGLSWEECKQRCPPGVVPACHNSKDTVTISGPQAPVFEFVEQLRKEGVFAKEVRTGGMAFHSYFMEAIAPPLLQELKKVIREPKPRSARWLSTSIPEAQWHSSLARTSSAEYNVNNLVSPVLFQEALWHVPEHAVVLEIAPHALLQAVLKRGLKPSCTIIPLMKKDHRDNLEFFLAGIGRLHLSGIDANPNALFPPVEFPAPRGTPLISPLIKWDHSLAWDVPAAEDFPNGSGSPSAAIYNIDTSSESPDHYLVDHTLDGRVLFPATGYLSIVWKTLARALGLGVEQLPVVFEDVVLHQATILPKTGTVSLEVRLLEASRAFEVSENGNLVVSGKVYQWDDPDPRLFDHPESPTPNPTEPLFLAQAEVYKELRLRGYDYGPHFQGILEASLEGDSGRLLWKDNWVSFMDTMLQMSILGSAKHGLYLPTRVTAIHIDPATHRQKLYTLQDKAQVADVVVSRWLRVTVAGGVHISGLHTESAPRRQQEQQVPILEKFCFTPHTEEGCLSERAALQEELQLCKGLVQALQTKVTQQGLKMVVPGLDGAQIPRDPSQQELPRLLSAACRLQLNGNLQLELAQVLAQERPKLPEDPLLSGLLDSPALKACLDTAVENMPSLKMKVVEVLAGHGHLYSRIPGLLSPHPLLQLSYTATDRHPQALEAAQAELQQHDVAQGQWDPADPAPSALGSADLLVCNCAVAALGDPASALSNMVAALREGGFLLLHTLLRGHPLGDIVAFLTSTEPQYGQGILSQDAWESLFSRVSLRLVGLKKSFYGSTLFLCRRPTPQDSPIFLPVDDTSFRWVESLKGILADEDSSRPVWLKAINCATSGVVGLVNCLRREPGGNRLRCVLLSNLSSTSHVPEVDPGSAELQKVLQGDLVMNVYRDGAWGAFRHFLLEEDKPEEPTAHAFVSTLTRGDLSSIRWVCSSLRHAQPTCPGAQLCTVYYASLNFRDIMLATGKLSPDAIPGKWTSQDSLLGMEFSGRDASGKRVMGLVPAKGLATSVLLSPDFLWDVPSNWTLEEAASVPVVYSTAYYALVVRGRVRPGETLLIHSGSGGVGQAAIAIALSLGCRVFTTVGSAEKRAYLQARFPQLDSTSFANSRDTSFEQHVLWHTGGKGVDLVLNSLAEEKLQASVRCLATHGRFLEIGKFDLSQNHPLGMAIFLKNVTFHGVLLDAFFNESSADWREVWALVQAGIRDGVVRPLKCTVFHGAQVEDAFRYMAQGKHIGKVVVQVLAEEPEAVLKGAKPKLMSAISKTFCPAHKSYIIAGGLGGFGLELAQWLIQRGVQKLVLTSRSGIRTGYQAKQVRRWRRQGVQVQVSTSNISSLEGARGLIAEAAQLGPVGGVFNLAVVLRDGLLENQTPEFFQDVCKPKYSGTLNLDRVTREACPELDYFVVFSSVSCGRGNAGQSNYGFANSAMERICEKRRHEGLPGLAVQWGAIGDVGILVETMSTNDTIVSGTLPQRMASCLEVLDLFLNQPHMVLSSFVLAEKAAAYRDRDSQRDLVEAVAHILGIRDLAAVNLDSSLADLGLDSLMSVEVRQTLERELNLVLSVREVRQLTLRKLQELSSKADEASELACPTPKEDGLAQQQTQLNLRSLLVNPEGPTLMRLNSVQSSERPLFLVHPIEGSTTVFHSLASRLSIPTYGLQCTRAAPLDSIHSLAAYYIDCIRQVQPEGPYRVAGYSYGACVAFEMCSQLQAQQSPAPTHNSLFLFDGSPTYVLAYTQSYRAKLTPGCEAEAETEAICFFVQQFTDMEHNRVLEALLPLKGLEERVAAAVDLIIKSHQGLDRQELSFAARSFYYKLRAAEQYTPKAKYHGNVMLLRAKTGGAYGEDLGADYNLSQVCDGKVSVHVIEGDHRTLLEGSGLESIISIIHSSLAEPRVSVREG

Fatty acid synthase [2] = target: T1, Fatty acid synthase; experiment: FAS thioesterase domain inhibitors, dose response, biochemical, endpoint fluorescence intensity, uHTS hits (AID 624327); format: functional;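 also: fluorescence from hydrolysis of an O-methyl fluorescein acyl ester substrate by the enzyme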
[3] = target: T2, Corticotropin-releasing factor receptor 2/Corticotropin-releasing factor-binding protein (Homo sapiens, UniProt P24387+Q13324); experiment: activators of CRF receptor 2 with binding protein – uHTS hits, confirmation (AID 602473); format: functional; conditions: read-out: EC50_Mean
T2 sequence (Q13324 whole entry): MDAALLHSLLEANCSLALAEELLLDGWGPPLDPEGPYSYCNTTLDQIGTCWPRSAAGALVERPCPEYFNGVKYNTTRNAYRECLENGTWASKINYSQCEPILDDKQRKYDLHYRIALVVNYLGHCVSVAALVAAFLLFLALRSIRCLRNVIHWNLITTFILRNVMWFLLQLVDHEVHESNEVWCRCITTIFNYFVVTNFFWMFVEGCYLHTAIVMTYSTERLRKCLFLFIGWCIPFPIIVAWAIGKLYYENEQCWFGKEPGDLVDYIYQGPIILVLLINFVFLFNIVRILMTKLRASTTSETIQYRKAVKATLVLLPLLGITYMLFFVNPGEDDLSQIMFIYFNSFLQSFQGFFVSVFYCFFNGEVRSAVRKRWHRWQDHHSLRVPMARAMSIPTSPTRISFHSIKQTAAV
T2 sequence (P24387 whole entry): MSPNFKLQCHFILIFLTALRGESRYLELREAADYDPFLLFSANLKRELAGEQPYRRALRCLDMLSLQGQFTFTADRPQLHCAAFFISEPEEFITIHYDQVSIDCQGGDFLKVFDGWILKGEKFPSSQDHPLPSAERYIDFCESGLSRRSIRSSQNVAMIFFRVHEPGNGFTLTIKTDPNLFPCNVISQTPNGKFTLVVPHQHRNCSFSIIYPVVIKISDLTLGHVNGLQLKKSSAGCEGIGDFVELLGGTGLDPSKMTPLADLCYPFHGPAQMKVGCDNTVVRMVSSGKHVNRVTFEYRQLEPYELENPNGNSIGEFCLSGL

[4] = target: 26S proteasome non-ATPase regulatory subunit 14 (Homo sapiens, UniProt O00487); experiment: inhibition of proteasome subunit RPN11 – biochemical, fluorescence polarization, uHTS hits, confirmation (AID 602368); format: functional
Chain of 26S proteasome non-ATPase regulatory subunit 14 (O00487 whole entry): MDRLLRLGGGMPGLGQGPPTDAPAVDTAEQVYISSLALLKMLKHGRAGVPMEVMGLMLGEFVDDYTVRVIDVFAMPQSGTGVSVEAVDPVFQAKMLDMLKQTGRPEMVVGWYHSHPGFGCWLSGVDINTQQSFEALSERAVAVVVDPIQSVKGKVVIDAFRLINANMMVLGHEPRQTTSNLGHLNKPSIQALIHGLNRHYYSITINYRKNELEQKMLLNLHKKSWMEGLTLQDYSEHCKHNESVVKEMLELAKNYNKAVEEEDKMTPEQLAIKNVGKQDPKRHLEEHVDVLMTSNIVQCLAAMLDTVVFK

Prothrombin = Prothrombin (Bos taurus, UniProt P00735); experiment: thrombin inhibition, dose response, biochemical, fluorescence polarization, uHTS hits (AID 602369); format: functional
[5] = target: 72 kDa type IV collagenase (Homo sapiens, UniProt P08253); experiment: Dose Response validation of uHTS RPN11 inhibitor hits using a MMP-2 Fluorescence assay.; format: functional
Chain of 72 kDa type IV collagenase (P08253 whole entry): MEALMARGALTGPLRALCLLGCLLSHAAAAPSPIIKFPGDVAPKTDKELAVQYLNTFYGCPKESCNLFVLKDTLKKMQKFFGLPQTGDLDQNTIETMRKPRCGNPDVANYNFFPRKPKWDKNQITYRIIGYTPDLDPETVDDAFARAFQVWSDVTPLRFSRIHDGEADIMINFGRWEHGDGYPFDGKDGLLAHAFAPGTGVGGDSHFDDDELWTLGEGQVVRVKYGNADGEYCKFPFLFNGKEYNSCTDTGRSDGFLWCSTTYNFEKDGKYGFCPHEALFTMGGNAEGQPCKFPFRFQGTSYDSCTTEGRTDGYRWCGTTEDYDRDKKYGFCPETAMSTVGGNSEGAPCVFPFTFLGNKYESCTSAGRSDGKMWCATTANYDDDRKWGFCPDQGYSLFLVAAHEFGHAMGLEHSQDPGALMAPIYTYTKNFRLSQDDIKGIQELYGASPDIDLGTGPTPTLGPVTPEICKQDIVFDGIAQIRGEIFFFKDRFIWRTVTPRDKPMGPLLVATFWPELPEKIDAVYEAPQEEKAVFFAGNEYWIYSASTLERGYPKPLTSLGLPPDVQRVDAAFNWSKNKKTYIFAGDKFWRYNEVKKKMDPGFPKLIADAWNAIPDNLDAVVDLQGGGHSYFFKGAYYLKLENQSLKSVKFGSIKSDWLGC

[6] = HEp-2 cell cytotoxicity, dose response, cytotoxicity control for RSV inhibitor project, HTS (AID 2410); format: functional; conditions: human respiratory syncytial virus
[7] = intracellular Trypanosoma cruzi inhibitors in host cells – cell-based, plate reader, cherry-pick samples, set 3, dose response (AID 651818); format: functional;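 also: compounds incubated with infected cells for about four days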
[8] = THP-1 cell cytotoxicity, dose response, cytotoxicity control for non-replicating M. tuberculosis project (AID 489025); format: functional
cells [9] = format: functional
Protein Wnt-3a = Protein Wnt-3a (Mus musculus, UniProt P27467); experiment: Wnt3a-driven reporter signaling inhibition, dose response, selectivity assay for Gli-SUFU antagonist project, Wnt-LIGHT cells, luminescence (AID 651570); format: functional; conditions: read-out: IC50_Mean;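 also: Wnt-LIGHT reporter cells stimulated with conditioned medium from Wnt3a-producing cells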
Chain of Protein Wnt-3a (P27467 whole entry): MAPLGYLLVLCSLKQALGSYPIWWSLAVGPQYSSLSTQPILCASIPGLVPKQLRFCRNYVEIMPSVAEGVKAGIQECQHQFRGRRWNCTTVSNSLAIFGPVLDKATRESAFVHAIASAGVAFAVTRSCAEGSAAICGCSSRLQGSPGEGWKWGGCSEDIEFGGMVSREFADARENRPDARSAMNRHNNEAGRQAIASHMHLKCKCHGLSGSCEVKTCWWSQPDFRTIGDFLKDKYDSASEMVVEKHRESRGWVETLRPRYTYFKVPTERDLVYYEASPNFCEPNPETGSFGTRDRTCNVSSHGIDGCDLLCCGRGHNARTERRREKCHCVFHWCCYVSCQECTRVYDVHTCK

[10] = target: T3, Ubiquitin-conjugating enzyme E2 N (Homo sapiens, UniProt P61088); format: functional;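 also: Dose-response confirmation in a TR-FRET assay detecting UBC13-driven polyubiquitin chain formation, inhibition measured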
T3 sequence (P61088 whole entry): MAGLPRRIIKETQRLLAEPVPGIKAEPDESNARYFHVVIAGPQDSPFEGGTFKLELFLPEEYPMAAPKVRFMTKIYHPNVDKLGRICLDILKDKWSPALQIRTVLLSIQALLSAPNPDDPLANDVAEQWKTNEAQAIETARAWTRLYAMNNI

BJ [11] = experiment: cytotoxicity toward BJ-TERT-LT-ST fibroblasts, dose response, cell-based, RAS-independent, luminescence (AID 1935); format: functional; conditions: Homo sapiens;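 also: BJ fibroblasts immortalized with TERT plus LT and ST oncogenes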
[12] = inhibitors of firefly luciferase expression or activity, dose response, H4 neuroglioma cells, luminescence (AID 1990); format: functional, cell-based
BJ [13] = experiment: cytotoxicity toward BJ-TERT fibroblasts, dose response, cell-based, RAS-independent, luminescence (AID 1933); format: functional; conditions: Homo sapiens
[14] = NIH-3T3 fibroblast cytotoxicity, dose response, cytotoxicity control, cell-based, fluorescence, Alamar Blue, secondary assay (AID 2327); format: functional;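 also: NIH-3T3 mouse fibroblasts cultured with fluconazole at 8 µg/mL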
HEK293 = experiment: inhibitors of LMP1-driven NF-kB reporter, dose response, cell-based, HEK293, luciferase, cherry-pick (AID 588343); format: functional; conditions: Homo sapiens
[15] = inhibitors of SNCA 5'UTR-driven reporter translation, confirmation, H4 neuroglioma cells, luminescence (AID 1988); format: functional, cell-based
Cytochrome P450 3A4 = Cytochrome P450 3A4 (Homo sapiens, UniProt P08684);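 also: CYP3A4 tested as one member of a cytochrome P450 panel screen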
BJ [16] = experiment: cells; format: functional, cell-based; conditions: Homo sapiens
[17] = cytotoxicity toward DRD oncogenic fibroblasts, dose response, cell-based, non-viral oncogenic, luminescence (AID 1934); format: functional; conditions: Homo sapiens
[18] = cytotoxicity in MIN6 insulinoma cells, dose response, cytotoxicity control, cell-based, mouse insulinoma (AID 2122); format: functional;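 also: confirmatory high-throughput counterscreen run to flag cytotoxic compounds; mouse MIN-6 beta cells carrying an insulin promoter eGFP reporter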
[19] = inhibitors of intracellular T. cruzi replication, confirmation, NIH3T3 host cells, beta-gal luminescence (AID 2044); format: functional, cell-based;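 also: intracellular parasites grown in NIH/3T3 mouse fibroblasts as host cells; luminescent beta-galactosidase reporter signal from transgenic T. cruzi replicating inside host cells; inhibitors lower the luminescence signal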
INS1 = experiment: beta cell apoptosis inhibitors, cytokine rescue, dose response, luminescence, retest (AID 449756); format: functional, cell-based; conditions: Rattus norvegicus;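 also: cell death triggered by IL-1 beta plus TNF-alpha plus IFN-gamma mixture; protective hits raise ATP signal compared with cytokine alone wells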
[20] = C. albicans growth with fluconazole, confirmation, fluorescence, retest (AID 2467); format: functional, cell-based
[21] = Luminescence Cell-Based Dose Response HTS to Identify Inhibitors of 5'UTR Stem-Loop Driven Prion Protein mRNA Translation in H4 Neuroglioblastoma Cells. [Related pubchem assays: 1827 (Project Summary), 1813 (Primary HTS)]; format: functional
cells [22] = format: functional, cell-based
[23] = insulin promoter down-regulators in MIN6 cells, imaging, high-content screening, mouse beta cells (AID 1628); format: functional
cells [24] = format: functional, cell-based; remark: listed apart in the source
[25] = cytotoxicity toward NIH3T3 fibroblasts, dose response, counter-screen, cell-based, ATP luminescence, mouse fibroblasts (AID 2010); format: functional;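 also: cells exposed to compound for about 90 hours before reading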
[26] = HeLa cell cytotoxicity, dose response, cytotoxicity control for MgcRacGAP inhibitor project (AID 624300); format: functional
[27] = target: T4, Rac GTPase-activating protein 1 (Homo sapiens, UniProt Q9H0H5); experiment: MgcRacGAP GTPase-activating activity inhibitors, confirmation, biochemical, ADP Hunter fluorescence, primary and confirmatory (AID 624330); format: functional
T4 sequence (Q9H0H5 whole entry): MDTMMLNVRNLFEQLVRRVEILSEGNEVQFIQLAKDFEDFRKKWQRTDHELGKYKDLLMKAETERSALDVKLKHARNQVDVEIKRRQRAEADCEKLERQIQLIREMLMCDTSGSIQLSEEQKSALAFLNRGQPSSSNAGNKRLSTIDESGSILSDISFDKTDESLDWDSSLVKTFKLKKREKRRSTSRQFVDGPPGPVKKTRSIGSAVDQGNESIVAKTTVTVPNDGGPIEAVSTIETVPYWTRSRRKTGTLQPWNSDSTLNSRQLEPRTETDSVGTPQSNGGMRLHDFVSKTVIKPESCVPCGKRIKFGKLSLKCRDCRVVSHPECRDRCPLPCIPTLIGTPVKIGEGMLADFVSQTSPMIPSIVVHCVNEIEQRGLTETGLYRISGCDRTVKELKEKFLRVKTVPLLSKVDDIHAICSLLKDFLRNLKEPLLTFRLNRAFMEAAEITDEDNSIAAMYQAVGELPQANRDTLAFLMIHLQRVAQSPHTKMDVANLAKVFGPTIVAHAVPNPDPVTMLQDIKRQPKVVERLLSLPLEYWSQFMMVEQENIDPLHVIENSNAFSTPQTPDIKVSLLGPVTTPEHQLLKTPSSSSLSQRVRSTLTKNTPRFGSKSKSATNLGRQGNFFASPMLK

[28] = microbe, parasite or virus in culture; format: functional; conditions: Mycobacterium tuberculosis
H4 = experiment: Luminescence Cell-Based Dose Response HTS to Identify Activators of 5'UTR Stem-Loop Driven Prion Protein mRNA Translation in H4 Neuroglioblastoma Cells. [Related pubchem assays: 1829 (Project Summary), 1814 (Primary HTS)]; format: functional; conditions: Homo sapiens
[29] = Luminescence Cell-Based Dose Response HTS to Identify Activators of Luciferase Translation or Activity in H4 […] Cells. [Related pubchem assays: 1829 (Project Summary), 1814 (Primary HTS)]; format: functional
[30] = Luminescence Cell-Based Dose Confirmation HTS to Identify Activators of 5'UTR Stem-Loop Driven Alpha-Synuclein mRNA Translation in H4 Neuroglioblastoma Cells. [Related pubchem assays: 1829 (Project Summary), 1814 (Primary HTS)]; format: functional

Chain of Beta-galactosidase (Q8VNN2 whole entry, the tested form may be a part): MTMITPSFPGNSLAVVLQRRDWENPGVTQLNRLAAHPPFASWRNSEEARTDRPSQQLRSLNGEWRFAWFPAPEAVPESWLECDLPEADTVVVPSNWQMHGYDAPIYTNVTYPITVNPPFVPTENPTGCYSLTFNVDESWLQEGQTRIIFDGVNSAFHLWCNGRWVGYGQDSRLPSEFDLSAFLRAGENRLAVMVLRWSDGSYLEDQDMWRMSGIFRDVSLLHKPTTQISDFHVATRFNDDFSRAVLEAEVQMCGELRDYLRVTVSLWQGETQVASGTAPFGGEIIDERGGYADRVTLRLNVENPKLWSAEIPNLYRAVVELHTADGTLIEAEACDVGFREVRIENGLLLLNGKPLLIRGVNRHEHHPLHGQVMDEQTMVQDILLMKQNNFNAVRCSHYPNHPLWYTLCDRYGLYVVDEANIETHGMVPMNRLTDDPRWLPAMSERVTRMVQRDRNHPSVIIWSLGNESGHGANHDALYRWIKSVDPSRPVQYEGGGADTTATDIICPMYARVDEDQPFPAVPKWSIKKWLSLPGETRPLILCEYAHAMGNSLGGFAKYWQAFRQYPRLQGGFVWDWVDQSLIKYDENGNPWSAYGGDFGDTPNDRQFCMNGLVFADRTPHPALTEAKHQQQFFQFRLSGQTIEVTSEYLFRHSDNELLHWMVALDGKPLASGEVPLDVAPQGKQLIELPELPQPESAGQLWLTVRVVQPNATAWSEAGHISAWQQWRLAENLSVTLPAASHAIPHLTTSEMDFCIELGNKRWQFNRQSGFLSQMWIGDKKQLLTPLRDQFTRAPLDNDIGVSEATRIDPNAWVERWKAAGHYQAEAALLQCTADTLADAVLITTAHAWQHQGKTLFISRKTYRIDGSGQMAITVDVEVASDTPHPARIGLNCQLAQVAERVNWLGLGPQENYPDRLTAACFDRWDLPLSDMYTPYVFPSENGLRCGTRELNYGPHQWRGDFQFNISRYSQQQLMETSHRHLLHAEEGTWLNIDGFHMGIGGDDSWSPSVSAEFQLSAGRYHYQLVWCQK

SMILES: COc1ccc(/C=C(\C#N)C(=O)Nc2cc(S(=O)(=O)N3CCOCC3)ccc2N2CCCC2)cc1
- IC50 (Beta-galactosidase): > 80 µM (inactive)

SMILES: CN(CCOc1ccccc1)CC(=O)Nc1ccc([N+](=O)[O-])cc1Cl
- IC50 (Fatty acid synthase [1]): 12.7 µM (active)
- IC50 (Fatty acid synthase [2]): 9.54 µM (active)

SMILES: O=C(/C=C/c1ccccc1)N1CCN(c2cccc(Cl)n2)CC1
- IC50 (Beta-galactosidase): > 80 µM (inactive)

SMILES: O=C(CSc1ccc([N+](=O)[O-])cn1)Nc1ccc2c(c1)OCCO2
- IC50 (Fatty acid synthase [1]): 4.17 µM (active)
- IC50 (Fatty acid synthase [2]): 1.51 µM (active)

SMILES: COc1ccc(-c2nn(CCC#N)cc2C(=O)Nc2ccc(C(C)=O)cc2)cc1[N+](=O)[O-]
- IC50 (Fatty acid synthase [1]): 4.1 µM (active)
- IC50 (Fatty acid synthase [2]): 1.41 µM (active)

SMILES: O=C(c1cc(COc2cccc(C(F)(F)F)c2)on1)N1C[C@@H]2CCC[C@H]1C2
- IC50 (Fatty acid synthase [1]): 10.7 µM (active)
- IC50 (Fatty acid synthase [2]): 12.4 µM (active)

SMILES: Nc1c(-c2cccc(Cl)c2)cnn1-c1cccc([N+](=O)[O-])c1
- IC50 (Fatty acid synthase [1]): 12 µM (active)
- IC50 (Fatty acid synthase [2]): 11 µM (active)

SMILES: CCOc1cc(/C=C2\C(=N)N3N=C(CC(=O)N4CCCCC4)SC3=NC2=O)ccc1O
- EC50 [3]: 6.32 µM (active)
- IC50 [4]: 37.6 µM (active)
- IC50 (Prothrombin): 33.4 µM (active)
- IC50 [5]: > 100 µM (inactive)

SMILES: CCc1ccc2oc(C(=O)N3CCN(c4ccccc4OC)CC3)cc(=O)c2c1
- IC50 (Beta-galactosidase): > 80 µM (inactive)

SMILES: Cc1ccc(C2CC(c3cccs3)=NN2S(=O)(=O)c2ccc(C)cc2)cc1 (configuration not stated)
- IC50 [4]: 43.4 µM (active)
- IC50 (Prothrombin): 55.9 µM (active)
- CC50 [6]: > 50 µM (active)
- IC50 [5]: > 100 µM (inactive)

SMILES: C[C@@H]1CN([C@H](C)CO)C(=O)c2cc(NC(=O)Nc3ccc(C(F)(F)F)cc3)ccc2O[C@H]1CN(C)S(=O)(=O)c1ccccc1
- AC50 [7]: 7.36 µM (active)

SMILES: CCC(C)[C@H]1CN=C(N)N1CCc1cccc2ccccc12 (some centres not stated)
- CC50 [8]: 15.8 µM (active)
- IC50 (cells [9]): 22.5 µM (active)
- IC50 (Protein Wnt-3a): 6.06 µM (active)
- IC50 [10]: > 20 µM (inactive)

SMILES: COc1ccc(O)c(/C=N/NC(=O)c2ccc(OCc3cccc(Br)c3)cc2)c1
- EC50 (BJ [11]): 20.1 µM (active)
- EC50 [12]: 0.239 µM (active)
- IC50 [4]: 37.9 µM (active)
- EC50 (BJ [13]): 9.05 µM (active)
- EC50 [14]: 17.5 µM (inconclusive)
- AC50 (HEK293): 3.86 µM (active)
- EC50 [15]: 2.97 µM (active)
- IC50 (Prothrombin): 68.3 µM (active)
- AC50 (Cytochrome P450 3A4): 7.08 µM (inconclusive)
- EC50 (BJ [16]): 110 µM (active)
- EC50 [17]: 16.3 µM (active)
- IC50 [18]: 2.84 µM (active)
- EC50 [19]: 0.77 µM (active)
- AC50 (INS1): 2.61 µM (active)
- IC50 [5]: > 100 µM (inactive)
- EC50 [20]: > 38 µM (not active)
- EC50 [21]: 6.79 µM (active)
- EC50 (cells [22]): > 350 µM (not active)
- IC50 [23]: 3.56 µM (active)
- EC50 (cells [24]): > 350 µM (not active)
- EC50 [25]: 7.23 µM (active)

SMILES: Cc1c(C(=O)N/N=C/c2ccc(O)c(Br)c2)sc(N)c1C#N
- CC50 [26]: 78.2 µM (active)
- IC50 [4]: 49.8 µM (active)
- IC50 (Prothrombin): 48.9 µM (active)
- IC50 [5]: > 100 µM (inactive)
- IC50 [27]: 97.3 µM (active)

SMILES: C(=N\NC1=Nc2cccc3cccc1c23)/c1cccnc1
- IC50 [4]: 11.9 µM (active)
- CC50 [28]: > 40 µM (active)
- IC50 (Prothrombin): 14 µM (active)
- EC50 (H4): > 120 µM (not active)
- EC50 [29]: 2.39 µM (active)
- EC50 [30]: 0.128 µM (active)
- IC50 [5]: > 100 µM (inactive)

SMILES: C[C@@H]1CN([C@@H](C)CO)C(=O)c2cc(NS(=O)(=O)c3ccc(Cl)cc3)ccc2O[C@@H]1CN(C)Cc1ccc(-c2ccccc2)cc1
- AC50 [7]: 3.31 µM (active)

SMILES: C[C@@H]1CCCCO[C@@H](CN(C)Cc2ccc(Cl)c(Cl)c2)[C@@H](C)CN([C@H](C)CO)C(=O)c2cc(NC(=O)C3CCCCC3)ccc2O1
- AC50 [7]: 2.9 µM (active)

SMILES: C[C@H]1CN([C@@H](C)CO)C(=O)c2cc(NC(=O)Cc3cn(C)c4ccccc34)ccc2O[C@H]1CN(C)Cc1ccc(-c2ccccc2)cc1
- AC50 [7]: 3.27 µM (active)
